Results from US9662318B2, “Bitopic muscarinic agonists and antagonists and methods of synthesis and use thereof” (BARRY UNIVERSITY, INC., priority 2012, dated 2017).
Where two headings read alike, the source gives them in different places.

Columns and labels:
M1 muscarinic receptor [1] = biological target: T1, M1 muscarinic receptor (Homo sapiens, UniProt P11229); experiment: Dissociation of [3H]NMS (full time course kinetics); assay type: binding; conditions: [^3H]NMS dissociation
T1 sequence (P11229 1-460): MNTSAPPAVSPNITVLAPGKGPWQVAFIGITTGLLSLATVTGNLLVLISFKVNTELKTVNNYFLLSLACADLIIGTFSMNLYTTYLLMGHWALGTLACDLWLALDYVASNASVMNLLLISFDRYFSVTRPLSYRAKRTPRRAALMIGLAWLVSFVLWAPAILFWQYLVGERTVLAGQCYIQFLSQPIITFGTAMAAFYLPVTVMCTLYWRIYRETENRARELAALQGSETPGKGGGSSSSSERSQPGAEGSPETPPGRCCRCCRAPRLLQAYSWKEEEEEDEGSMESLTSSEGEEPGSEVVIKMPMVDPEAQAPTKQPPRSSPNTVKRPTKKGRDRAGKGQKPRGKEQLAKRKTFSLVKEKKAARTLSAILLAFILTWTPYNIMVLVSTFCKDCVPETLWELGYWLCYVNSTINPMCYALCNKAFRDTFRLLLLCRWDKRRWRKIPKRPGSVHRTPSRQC
From the text: (§1) To probe the ability of JB-D4 to allosterically modulate orthosteric ligand, its effect on the rate of orthosteric radioligand dissociation has been investigated. […] Eq. 1 was fitted to the data from kinetic experiments. Data are means±SD from 3 independent experiments performed in quadruplicates. Equations: y=(100-f2)*e^(-Koff1*X)+f2*e^(-Koff2*X) (Eq. 1) where y is the percentage of radioligand binding at time x of radioligand binding at time 0, koff1 and koff2 are rate dissociation constants and f2 is the percentage of sites with koff2 rate of dissociation. […]. 2)

M3 muscarinic receptor [2] = biological target: T2, M3 muscarinic receptor (Homo sapiens, UniProt P20309); experiment: as above; assay type: binding; conditions: [^3H]NMS dissociation
T2 construct: host or cells: Chinese hamster ovary cells
T2 sequence (P20309 whole entry): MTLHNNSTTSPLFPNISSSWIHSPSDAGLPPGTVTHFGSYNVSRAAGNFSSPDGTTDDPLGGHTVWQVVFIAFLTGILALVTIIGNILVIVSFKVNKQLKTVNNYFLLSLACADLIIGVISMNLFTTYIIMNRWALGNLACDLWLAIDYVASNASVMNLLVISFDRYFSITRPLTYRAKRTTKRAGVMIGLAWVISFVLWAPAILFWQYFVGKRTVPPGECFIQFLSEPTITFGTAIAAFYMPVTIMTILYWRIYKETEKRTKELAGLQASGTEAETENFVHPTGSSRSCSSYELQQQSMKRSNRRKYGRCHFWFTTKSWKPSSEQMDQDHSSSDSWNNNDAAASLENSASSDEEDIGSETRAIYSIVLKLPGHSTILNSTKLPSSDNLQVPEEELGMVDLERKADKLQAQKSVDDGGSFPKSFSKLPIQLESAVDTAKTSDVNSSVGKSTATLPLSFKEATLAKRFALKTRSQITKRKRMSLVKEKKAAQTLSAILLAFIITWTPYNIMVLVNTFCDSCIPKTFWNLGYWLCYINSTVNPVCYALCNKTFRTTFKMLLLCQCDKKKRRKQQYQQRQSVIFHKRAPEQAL
From the text: as §1

M4 muscarinic receptor [3] = biological target: T3, M4 muscarinic receptor (Homo sapiens, UniProt P08173); experiment: as above; assay type: binding; conditions: [^3H]NMS dissociation
T3 construct: host or cells: Chinese hamster ovary cells
T3 sequence (P08173 1-479): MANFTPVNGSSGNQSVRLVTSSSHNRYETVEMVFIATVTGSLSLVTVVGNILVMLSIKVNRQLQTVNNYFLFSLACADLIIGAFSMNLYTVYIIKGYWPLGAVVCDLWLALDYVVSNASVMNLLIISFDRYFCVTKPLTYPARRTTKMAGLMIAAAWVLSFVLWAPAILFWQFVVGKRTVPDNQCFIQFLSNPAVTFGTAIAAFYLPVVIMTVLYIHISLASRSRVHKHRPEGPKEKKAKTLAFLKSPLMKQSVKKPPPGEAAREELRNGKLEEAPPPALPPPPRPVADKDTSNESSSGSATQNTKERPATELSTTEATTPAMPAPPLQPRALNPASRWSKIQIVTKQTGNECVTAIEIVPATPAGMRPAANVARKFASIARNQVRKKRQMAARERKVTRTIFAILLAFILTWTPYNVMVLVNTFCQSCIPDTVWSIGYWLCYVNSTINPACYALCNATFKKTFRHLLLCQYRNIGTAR
From the text: as §1

M5 muscarinic receptor = biological target: T4, M5 muscarinic receptor (Homo sapiens, UniProt P08912); experiment: as above; assay type: binding; conditions: [^3H]NMS dissociation, +0.1 mM JB-D4, M5
T4 construct: host or cells: CHO (Chinese hamster ovary) cells, stably transfected
T4 sequence (P08912 1-532): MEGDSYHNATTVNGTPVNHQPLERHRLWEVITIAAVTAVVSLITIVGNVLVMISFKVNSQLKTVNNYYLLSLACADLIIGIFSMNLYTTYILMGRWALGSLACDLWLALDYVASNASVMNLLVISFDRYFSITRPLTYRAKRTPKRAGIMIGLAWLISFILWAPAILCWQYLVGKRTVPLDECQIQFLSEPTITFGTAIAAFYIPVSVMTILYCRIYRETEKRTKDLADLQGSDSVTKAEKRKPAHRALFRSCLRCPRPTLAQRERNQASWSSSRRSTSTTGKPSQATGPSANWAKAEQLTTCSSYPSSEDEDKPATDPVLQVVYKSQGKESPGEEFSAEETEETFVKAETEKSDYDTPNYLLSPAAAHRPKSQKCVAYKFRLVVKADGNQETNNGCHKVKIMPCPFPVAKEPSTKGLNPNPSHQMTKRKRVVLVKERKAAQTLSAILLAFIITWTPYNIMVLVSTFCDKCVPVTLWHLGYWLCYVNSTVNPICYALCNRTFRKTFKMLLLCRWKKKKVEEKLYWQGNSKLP
From the text: as §1

M1 muscarinic receptor [4] = biological target: T1, M1 muscarinic receptor; experiment: Competition with [3H]NMS (equilibrium binding, CHO membranes); conditions: for IC50: competition with [^3H]NMS
Method: (§2) All radioligand binding experiments were optimized and carried out as described earlier. Briefly, membranes were incubated in 96-well plates at 30° C. in the incubation medium described. […] Dissociation was initiated by addition of atropine to final concentration of 5 Tested ligands in final concentration of 100 μM were added concurrently with atropine. Incubations were terminated by filtration through Whatman GF/C glass fiber filters (Whatman) using a Brandel cell harvester (Brandel, Gaithersburg, Md., USA). Filters were dried in vacuum for 1 h while heated at 80° C. and then solid scintillator Meltilex A was melted on filters (105° C., 90 s) using a hot plate. The filters were cooled and counted in Wallac Microbeta scintillation counter.
(§3) Inhibition constant KI was calculated as: […]

M4 muscarinic receptor [5] = biological target: T3, M4 muscarinic receptor; experiment: as above; conditions: for IC50: competition with [^3H]NMS
Method: as §2, §3

M3 muscarinic receptor [6] = biological target: T2, M3 muscarinic receptor; experiment: biochemical; assay type: binding; conditions: competition with [^3H]QNB
M3 muscarinic receptor [7] = biological target: T2, M3 muscarinic receptor; experiment: Accumulation of inositol phosphates in CHO cells; assay type: cell-based; conditions: ligand 0.1 mM, no carbachol
Method: Chinese hamster ovary cells stably transfected with the genes of human variants of muscarinic receptors were purchased from Missouri S&T cDNA Resource Center (Rolla, Mo., USA). […] Cells were grown to confluency in 75 cm^2 flasks in Dulbecco's modified Eagle's medium supplemented with 10% fetal bovine serum and 2 million of cells were subcultured to 100 mm Petri dishes. Medium was supplemented with 5 mM butyrate for the last 24 hours of cultivation to increase receptor expression.
Inositolphosphates formation was determined in cells pre-labeled overnight by 0.5 μM [^3H]myo-inositol in 0.3 mL of DMEM (3 μCi/ml) at 37° C. […] Incubation was stopped by removal of incubation buffer and addition 0.2 mL 20% trichloracetic acid (TCA). After 1 h incubation at 4° C., 100 μL, of TCA extracts were taken for measurement. Rest of the TCA was removed, and TCA precipitates were washed with 200 μL TCA and dissolved in 200 μL of 1 M NaOH. After 1 h incubation at 4° C., 100 μL, of NaOH lysates were taken for measurement. Radioactivity in TCA extracts and NaOH lysates were determined by liquid scintillation counting. The rate of inositolphosphates accumulation was calculated as a percentage of the soluble (released) inositolphosphates from the total incorporated radioactivity (sum of radioactivity in NaOH lysates and TCA extracts).
EC50 values are expressed as negative logarithms and EMAX values as folds over basal, Table 7.

CCCCOc1ccc(C(=O)OCC[N+]2(C)CCCCC2)cc1.[I-] [JB-D4, 2-(N-piperidineethyl) p-butoxybenzoate N-methyl iodide]
koff1 (M1 muscarinic receptor [1]; +0.1 mM JB-D4, M1): 0.000253 ± 1.4e-05 s⁻¹
koff2 (M1 muscarinic receptor [1]; +0.1 mM JB-D4, M1): 0.000319 ± 1.7e-05 s⁻¹
f2 (M1 muscarinic receptor [1]; +0.1 mM JB-D4, M1, percentage of sites with koff2): 12 ± 1%
koff1 (M1 muscarinic receptor [1]; +1 mM JB-D4, M1): 0.000169 ± 1.7e-05 s⁻¹
koff1 (M3 muscarinic receptor [2]; +0.1 mM JB-D4, M3): 0.000114 ± 8.3e-06 s⁻¹
koff1 (M3 muscarinic receptor [2]; +1 mM JB-D4, M3): 2.36e-05 ± 2.2e-06 s⁻¹
koff1 (M4 muscarinic receptor [3]; +0.1 mM JB-D4, M4): 0.000106 ± 8.3e-06 s⁻¹
koff1 (M4 muscarinic receptor [3]; +1 mM JB-D4, M4): 2.11e-05 ± 1.7e-06 s⁻¹
koff1 (M5 muscarinic receptor): 5e-05 ± 2.8e-06 s⁻¹
IC50 (M1 muscarinic receptor [4]; M1, average of 3, read-out: avg IC50): 14.4 µM
IC50 (M1 muscarinic receptor [4]; M1, experiment 1, read-out: IC50—1): 14.3 µM
IC50 (M1 muscarinic receptor [4]; M1, experiment 2, read-out: IC50—2): 13.8 µM
IC50 (M1 muscarinic receptor [4]; M1, experiment 3, read-out: IC50—3): 15.1 µM
Ki (M1 muscarinic receptor [4]; read-out: KI): 2.88 µM
IC50 (M4 muscarinic receptor [5]; M4, average of 3, read-out: avg IC50): 41.8 µM
IC50 (M4 muscarinic receptor [5]; M4, experiment 1, read-out: IC50—1): 43.4 µM
IC50 (M4 muscarinic receptor [5]; M4, experiment 2, read-out: IC50—2): 42 µM
IC50 (M4 muscarinic receptor [5]; M4, experiment 3, read-out: IC50—3): 40 µM
Ki (M4 muscarinic receptor [5]; read-out: KI): 7.54 µM
Ki (M3 muscarinic receptor [6]; M3): 4.34 µM
IC50 (M3 muscarinic receptor [6]; M3, average of 3, read-out: avg IC50): 29.4 µM
IC50 (M3 muscarinic receptor [6]; M3, experiment 1, read-out: IC50—1): 39.5 µM
IC50 (M3 muscarinic receptor [6]; M3, experiment 2, read-out: IC50—2): 20.6 µM
IC50 (M3 muscarinic receptor [6]; M3, experiment 3, read-out: IC50—3): 28.2 µM
Effect of ligands on basal activity (accumulation of inositol phosphates as percent of accumulation in the absence of the ligand) (M3 muscarinic receptor [7]): 102 ± 2%
